What was measured:
[1] = test system: isolated-perfused mouse lungs preconstricted with U46619; assay: Pulmonary vasodilator response to NO inhalation in isolated, perfused and ventilated mouse lungs preconstricted with U46619; format: in vivo; conditions: for pulmonary vasodilator response to subsequent ventilation with NO after prolonged NO breathing: prolonged breathing of 20 ppm NO
Description: Isolated, Perfused, and Ventilated Mouse Lung Model Mice were killed by intraperitoneal injection of pentobarbital sodium (200 mg/kg body weight) and placed in a 37° C. water-jacketed chamber (Isolated Perfused Lung Size 1 Type 839; Hugo-Sachs Elektronik, March-Hugstetten, Germany). The trachea was isolated and intubated, and the lungs were ventilated with 21% O2, 6% CO2 and 73% N2 using a volume-controlled ventilator (model 687; Harvard Apparatus, South Natick, Mass.) at a ventilatory rate of 85 breaths/min and 2 cm H2O end-expiratory pressure. The tidal volume was adjusted to provide a peak inspiratory pressure of 10 cm H2O throughout each study. The lungs were exposed via a midline sternotomy, and a ligataure was placaed around the aorticopulmonary outflow tract. After injection of 10 IU heparin into the right ventricle, the pulmonary artery was cannulated with a stainless steel cannula (1 mm ID) via the right ventricle. The pulmonary venous effluent was drained via a stainless steel cannula (1 mm ID) placed through the apex of the left ventricle across the mitral valve and into the left atrium. Left atrial pressure was maintained at 2 mmHg. Lungs were perfused at a constant flow (50 ml. kg body weight^−1. min^−1; Ismatec Reglo-Analogue roller pump; Laboratoriumstechnik GmbH, Wertheim-Mondfeld, Germany) with a non-recirculating system at 37° C. The perfusate used was Hanks' Balanced Salt Solution (GibcoBRL, Grand Island, N.Y.) containing 1.26 mM CaCl2, 5.33 mM KCl, 0.44 mM KH2PO4, 0.50 mM MgCl2, 0.41 mM MgSO4, 138.0 mM NaCl, 4.0 mM NaHCO3, 0.3 mM Na2HPO4, and 5.6 mM glucose. Bovine serum albumin, 5%, and dextran, 5% (both from Sigma Chemical Co., St. Louis, Mo.), were added to the perfusate to prevent pulmonary edema, in the isolated, perfused, and ventilated rat lung, essentially as described in Holzmann et al., 1996, Am. J. Physiol. 271:L981-L986. Indomethacin, […] (Sigma Chemical Co.), and 1 mM L-NAME (Sigma Chemical Co.) were added to the perfusate to inhibit endogenous prostaglandin and NO synthesis, respectively. Sodium bicarbonate was added to adjust the perfusate pH to 7.34-7.43.
Pulmonary artery pressure (PAP) and left atrial pressure were measured via saline-filled membrane pressure transducers (Argon, Athens, Tex.) connected to a side port of the inflow and outflow cannulae, respectively. Airway pressure (Paw) was measured using a differential pressure transducer (model MP-45-32-871; Validyne Engineering Corp., Northridge, Calif.) connected to the inspiratory limb just before the Y piece. Pressure transducers were connected to a biomedical amplifier (Hewlett Packard 7754B, Andover, Mass.), and data were recorded at 150 Hz on a personal computer using an analog-to-digital interface with a data acquisition system (DI-220; Dataq Instruments, Akron, Ohio). The system was calibrated before each experiment.
For NO inhalation, NO gas (800 or 80 ppm NO in nitrogen, Airco, Murray Hill, N.J.) was blended (Oxygen Blender; Bird Corporation, Palm Springs, Calif.) with oxygen, carbon dioxide, and nitrogen to achieve a final concentration of 21% O2, 6% CO2, and the desired NO concentration. NO and higher oxidative states of NO (NOx; CLD 700 AL; Eco Physics, Dürmten, Switzerland), oxygen (Hudson Ventronics Ddivision, Temecula, Calif.), and carbon dioxide (Datex CO2 monitor; Puritan-Bennett Corpration, Los Angeles, Calif.) concentrations were monitored continuously.
Pulmonary Vascular Response to NO inhalation after Lipopolysaccharide Challenge Wild-type mice and NOS2-deficient mice were injected intraperitoneally with 50 mg/kg body weight Escherichia coli 0111:B4 lipopolysaccharide (LPS; Difco Laboratories, Detroit, Mich.) dissolved in saline 16 h before isolated lung perfusion. This time point was chosen based on previous studies in rats (Holzmann et al., 1996, Am. J. Physiol. 271:L981-L986). Untreated wild-type and NOS2-deficient mice served as controls. […]

[2] = Lung wet/dry ratio (Example 2); format: in vivo, mouse; conditions: breathing 4 or 40 ppm NO for 22 hours
Description: Lung wet/dry ratio. After euthanasia with pentobarbital (0.1 mg/g intraperitoneally), both lungs, excluding hilar structures, were excised, blotted, and immediately weighed. Thereafter, the tissue was dried in a microwave oven for 60 minutes, as described previously (20), and reweighed. Lung wet/dry ratio was calculated.

[3] = Wet-to-dry lung weight ratio after isolated lung perfusion (Example 1); format: in vivo, mouse; conditions: exposure to NO inhalation for 16 h
Description: Wet-to-Dry Lung Weight Ratio At the end of each experiment, both lungs, excluding hilar structures, were excised and weighed (wet weight). Thereafter, the lungs were dried in a microwave oven for 60 min, as previously described (Holzmann et al., supra), and then reweighed (dry weight). Wet-to-dry lung weight ratios were calculated by dividing the wet weight by the dry weight.

In the case of [N]=O [NO, Nitric oxide], the “effect of NO inhalation on PAP” value ([1]; 0.4, 4 and 40 ppm NO for 5 min each, all groups) is reported as “decreased the PAP in a dose-dependent manner”, the “ΔPAP (change in PAP by inhaled NO as percentage of U46619-induced increase)” value ([1]; 0.4 ppm NO, lipopolysaccharide-pretreated NOS2-deficient mice exposed to 20 ppm ambient NO for 16 h) is reported as −24±4% and the “ΔPAP (change in PAP by inhaled NO as percentage of U46619-induced increase)” value ([1]; 0.4 ppm NO, untreated control NOS2-deficient mice exposed to 20 ppm ambient NO for 16 h) is reported as −42±4%. For the same compound, the “ΔPAP (change in PAP by inhaled NO as percentage of U46619-induced increase)” value ([1]; 4 ppm NO, lipopolysaccharide-pretreated NOS2-deficient mice exposed to 20 ppm ambient NO for 16 h) was −39±5%, the “ΔPAP (change in PAP by inhaled NO as percentage of U46619-induced increase)” value ([1]; 4 ppm NO, untreated control NOS2-deficient mice exposed to 20 ppm ambient NO for 16 h) was −58±4% and the “ΔPAP (change in PAP by inhaled NO as percentage of U46619-induced increase)” value ([1]; 40 ppm NO, lipopolysaccharide-pretreated NOS2-deficient mice exposed to 20 ppm ambient NO for 16 h) was −55±3%. The “ΔPAP (change in PAP by inhaled NO as percentage of U46619-induced increase)” value ([1]; 40 ppm NO, untreated control NOS2-deficient mice exposed to 20 ppm ambient NO for 16 h) was −62±5%, the “subsequent responsiveness to short-term inhaled NO after prolonged NO breathing” value ([1]; breathing 0.2 ppm NO for 16 h after lipopolysaccharide, NOS2-deficient mice) was “did not cause subsequent hyporesponsiveness” and the “subsequent vasodilator response to 0.4 ppm NO inhalation after prolonged NO breathing” value ([1]; breathing 2 ppm NO for 16 h after lipopolysaccharide, NOS2-deficient mice, compared with control mice) was “decreased the vasodilator response”. For the same compound, the “pulmonary vasodilator response to subsequent ventilation with NO after prolonged NO breathing” value ([1]; endotoxin-challenged NOS2-deficient mice) was “markedly impaired the pulmonary vasodilator response”, the “pulmonary vasodilator response to subsequent ventilation with NO after prolonged NO breathing” value ([1]; untreated wild-type or NOS2-deficient mice) was “does not impair the pulmonary vasodilator response” and the “wet/dry lung weight ratios” value [2] was “did not alter”. The “wet-to-dry lung weight ratio” value ([3]; lipopolysaccharide-pretreated NOS2-deficient mice) was 5.1±0.2, the “wet-to-dry lung weight ratio” value ([3]; lipopolysaccharide-pretreated wild-type mice) was 4.9±0.1 and the “wet-to-dry lung weight ratio” value ([3]; untreated NOS2-deficient mice) was 4.8±0.1. For the same compound, the “wet-to-dry lung weight ratio” value ([3]; untreated wild-type mice) was 4.5±0.3.
